The subject of assay [1] is RhoA in MDA-MB-231 cells expressing kinase-dead TrkA. Briefly: Ratiometric FRET RhoA activation, kinase-dead TrkA cells. The format is cell-based. Particulars: for relocation of activated RhoA to the migration front / local RhoA activation, in words: 25 min NGF, relocation observed with scramble peptide. On the procedure: MDA-MB-231 native or KD cells were seeded (5000 cells/well; ovn, 37 °C) in a chambered coverglass system (Lab-Tek®) coated with a type I collagen matrix (100 μg/mL; Corning). These cells were transfected using the pBabe-puro-RhoA plasmid (0.15 μg; Addgene plasmid #12602) diluted in a buffer solution (JetOPTIMUS® buffer) and a transfection agent (TA; 10 min). The mixture was incorporated into the culture medium (4 h; 37 °C). Two to three hours before image acquisition, the cells expressing the RhoA biosensor were starved in fresh EMEM containing 0.1% FBS and no phenol red. During image acquisition, the cells were maintained at 37 °C and with 5% CO2 in an incubation chamber installed under a microscope. Images were collected using a ZEISS LSM 880 confocal microscope with a plan-apochromat 63×/1.4 oil differential interference contrast (DIC) objective. The argon laser was tuned to emit 458 nm and 514 nm laser lines through a 470 to 500 nm bandpass emission filter (BP470–500) for CFP detection and a 530 nm longpass emission filter (LP530) for YFP detection. The emission of the CFP, FRET and YFP channels was recorded. The fluorescence emission ratios were computed using ImageJ software, which was also used to generate a report showing the FRET efficiency and intensity signal for each channel.
To further elucidate the mechanism of action of CD44v3 mimetic peptide 4, we studied its effect on the TrkA signaling pathway. […] Additionally, to confirm that this effect was independent of TrkA phosphorylation, we measured RhoA activation in MDA-MB-231 cells expressing dead TrkA kinase, which cannot be phosphorylated (Fig. 5D). […]
Fig. 5 CD44v3 is implicated in the phospho-TrkA-independent activation of RhoA GTPase. Phosphorylation of TrkA was measured in the presence of a scramble peptide or CD44v3 mimetic peptide 4 (P4) in the presence or absence of NGF (A). […] Phosphorylation of TrkA and downstream Akt in wild-type MDA-MB-231 and MDA-MB-231 cells expressing kinase-dead TrkA, as determined by western blotting (D). […]

The subject of assay [2] is TrkA/CD44v3 complex in BT-474 cells. Briefly: PLA TrkA/CD44v3 complex formation in BT-474 cells. Particulars: luminal B; NGF 100 ng/ml. The format is cell-based. How it is done: Cells (10,000 cells per well) were grown on acid-washed eight-well glass slides (Thermo Scientific) in the appropriate medium supplemented with 10% FBS for 24 h. After NGF treatment, paraformaldehyde (PAF)-fixed cells were incubated with 4% bovine serum albumin (BSA) or 5% FBS (for 1 h at 20 °C), followed by overnight incubation with primary antibodies (rabbit anti-TrkA or rabbit anti-IgG + mouse anti-pan-CD44; mouse anti-CD44v3; mouse anti-CD44v6; mouse anti-IgG2a; mouse anti-IgG2b; or mouse anti-IgG1). PLA was performed following the manufacturer’s instructions in the assay kit (Duolink PLA; Sigma–Aldrich). To obtain the correct representation of the PLA signal for each condition, 30 fields per condition were observed using a fluorescence microscope (Eclipse TiU; Nikon, Japan). The PLA signals (red dots) were automatically quantified using ImageJ software (with an in-house-developed plug-in). […]
Fig. 7 The TrkA/CD44v3 complex is formed in PR-negative breast cancer cells and tumors. TrkA/CD44v3 complex formation was measured in SUM159-PT (triple negative—i.e., ERα-, PR-, and Her2-) cells (A), T47-D (luminal A—i.e., ERα+, PR+, and Her2-) cells (B), BT-474 (luminal B—ERα+, PR+, and Her2+) cells (C), HCC-1954 (Her2-like—ERα-, PR-, and Her2+) cells (D), and 150 tumor patient samples obtained from US BioMax (HBre-Duc150Sur01) (E, F) using the proximity ligation assay (PLA). […]

As for “IDDDEDFISST [Peptide 4, mimetic peptide 4 (…) corresponding to the C-terminal region of CD44v3]”, the “relocation of activated RhoA to the migration front / local RhoA activation, in words” value in assay [1] (not with peptide 4, listed as CD44v3 mimetic peptide 4) is given as “relocation of activated RhoA to the migration front of the control cells with the scramble peptide after 25 min of NGF treatment but not with CD44v3 mimetic peptide 4”; in assay [1] (not with peptide 4, listed as P4), “impedes local RhoA activation independent of TrkA phosphorylation”. Also, the “NGF-induced increase in proportion of active RhoA, in words” value in assay [1] (45 min NGF, statement: increased with scramble peptide, not with peptide 4) was “NGF increased the proportion of active RhoA after 45 min in the presence of the scramble peptide (Fig. 5E) but not CD44v3 mimetic peptide 4”.

“NGF: recombinant human β-NGF (Alomone Labs, Israel)”: the “effect on TrkA/CD44v3 complex formation (PLA) in BT-474 cells” value in assay [2] was “NGF induction was insufficient to modulate TrkA/CD44v3 complex formation in BT-474 (luminal B) cells”.

These data come from publication PMC8962522, “Direct interaction of TrkA/CD44v3 is essential for NGF-promoted aggressiveness of breast cancer cells” (Journal of Experimental & Clinical Cancer Research : CR, 2022).
